From patent publication US20110200558A1, “Treatment or Prevention of Hepatitis C with Immunomodulator Compounds” (priority 2008, published 2011)
“Also recorded” adds a separate entry of the source. Read-outs that look alike come from different tables or passages of the source.

What was measured:
HCV [1] = details: within 5 days of therapy; cited from earlier work
HCV [2] = details: cited from earlier work
HCV [3] = details: higher doses (500-1500 mg/day); cited from earlier work
HCV genotype 1 [4] = details: 1500-mg twice-daily, 14 days, treatment-naive; cited from earlier work
HCV genotype 1 [5] = details: cited from earlier work
HCV genotype 1 [6] = details: 400 mg thrice daily, 14 days monotherapy, nonresponders to pegylated interferon alfa; cited from earlier work
HCV genotype 1 [7] = details: 400 mg thrice daily for 14 days with pegylated interferon alfa-2b, previous nonresponders; cited from earlier work
[8] = tested on: genotype 1 chronic HCV infection; experiment: Phase 2a dose ranging study of SCV-07: HCV viral load; assay type: in vivo, human
From the text: (§1) Here we describe interim results from a phase 2a, proof of principle, multicenter, randomized, controlled, single-blind dose ranging study, which is evaluating the safety and antiviral effect of SCV-07 in non-cirrhotic subjects with genotype 1 chronic HCV infection. Subjects enrolled in the study must have relapsed to previous treatment with PEGylated interferon and ribavirin; therefore any change in HCV viral load of greater than 0.5 log could be considered a significant response.
(§2) Subjects are treated with 7 daily injections of SCV-07 (8 subjects per cohort) or saline (2 per cohort). […] Due to this apparent late response, a 30-day follow up visit was added for Cohort 3. Of the 4 subjects in this Cohort who have reached the 30-day visit, one has responded with a 1.2-log drop in HCV along with an increase in neopterin (see Table1).

neopterin = experiment: Phase 2a dose ranging study of SCV-07: plasma biomarker neopterin; assay type: in vivo, human; details: Cohort 3, 1.0 mg/kg (interim); single responding subject
From the text: as §1, §2
A plasma concentration of neopterin above 10 nmol/L represents a “stimulated” immune system. […] Increased levels of neopterin also are correlated with increased sustained viral responses against HCV, and so is very strong evidence for the use of SCV-07 in this disease. The timing of the increase is also of interest.

[9] = Phase 2a dose ranging study of SCV-07: safety and tolerability; assay type: in vivo, human
From the text: as §1, §2
Further clinical investigation into longer treatment duration or addition to other anti-viral agents appears warranted.

HCV [10] = experiment: Combination treatment of hepatitis C patients, Examples 2-4; assay type: in vivo, human; details: Example 4: 0.1-2.0 mg/kg/day with STAT-C and/or ribavirin and/or pegylated interferon alpha-2b or alpha-2a, up to 48 weeks
From the text: Treatment, as in the examples above, results in achieving a sustained virological response (SVR) (which is accepted as cure and used as the efficacy endpoint for FDA approval), of 65-75%. This compares favorably with the current SOC SVR of 45-50%. This improved SVR is achieved in a regimen that has much less toxicity when compared to SOC (interferon sparing).

thymocyte and lymphocyte = details: in vitro; cited from earlier work
spleen lymphocytes = details: cited from earlier work
bone marrow cells = details: cited from earlier work
[11] = tested on: 5-FU-immune-suppressed animals; details: cited from earlier work
sheep red blood cells = details: immunization with sheep red blood cells; cited from earlier work
STAT-3 = details: cited from earlier work
[12] = tested on: Th1 cytokines IFN-g and IL-2, Th2 cytokines IL-4 and IL-10; details: cited from earlier work
Pichinde virus = Pichinde virus in guinea pigs; cited from earlier work
[13] = tested on: Cottontail papilloma virus; details: Cottontail papilloma virus in rabbits; cited from earlier work
herpes virus HSV-2 = details: guinea pigs infected with herpes virus HSV-2; cited from earlier work
[14] = 1500 mg twice daily for 14 days
[15] = 3000 mg twice daily for 14 days
[16] = 4500 mg twice daily for 14 days

## CCCCCOc1ccc(NC(=S)NC(=O)c2cccnc2)cc1C(F)(F)F [ACH-806]
HCV [1]
  drop in HCV RNA: 2.38 log

## COc1ccc2c(O[C@@H]3C[C@H]4C(=O)N[C@]5(C(=O)O)C[C@H]5/C=C\CCCCC[C@H](NC(=O)OC5CCCC5)C(=O)N4C3)cc(-c3csc(NC(C)C)n3)nc2c1 [BILN-2061]
HCV [2]; HCV genotype 1
  antiviral activity, HCV genotype 1: potent antiviral activity
HCV [2]; HCV genotype 2 and 3
  virologic response, HCV genotype 2 and 3 patients: less pronounced and more variable
HCV [2]; phase 1
  time of viral load reduction: ≤ 48 h

## CNC(=O)c1c(-c2ccc(F)cc2)oc2cc(N(CCO)S(C)(=O)=O)c(C3CC3)cc12 [HCV-796]
HCV [3]
  drop in the HCV RNA viral load: ~1.2 log

## CC(C)C(=O)OC[C@@]1(N=[N+]=[N-])O[C@@H](n2ccc(N)nc2=O)[C@H](OC(=O)C(C)C)[C@@H]1OC(=O)C(C)C [R1626]
HCV genotype 1 [4]
  reduction in HCV RNA: approximately 1.2 log
HCV genotype 1 [5]; 500 mg twice daily for 14 days
  Mean HCV viral reduction: 0.3 log 10
  median HCV viral reduction: 0.2 log 10
HCV genotype 1 [5]; [14]
  Mean HCV viral reduction: 1.2 log 10
  median HCV viral reduction: 0.8 log 10
HCV genotype 1 [5]; [15]
  Mean HCV viral reduction: 2.6 log 10
  median HCV viral reduction: 2.7 log 10
HCV genotype 1 [5]; [16]
  Mean HCV viral reduction: 3.7 log 10
  median HCV viral reduction: 4.1 log 10

## CC(C)(C)NC(=O)N[C@H](C(=O)N1C[C@H]2[C@@H]([C@H]1C(=O)NC(CC1CCC1)C(=O)C(N)=O)C2(C)C)C(C)(C)C (stereo partly shown) [SCH503034]
HCV genotype 1 [6]
  drop in HCV RNA from the baseline value: approximately 2 log
HCV genotype 1 [7]
  reduction in HCV RNA: 2.88 log

## N[C@H](CCC(=O)N[C@@H](Cc1c[nH]c2ccccc12)C(=O)O)C(=O)O [SCV-07, γ-D-glutamyl-L-tryptophan]
[8]; Cohort 1, 0.01 mg/kg
  HCV viral load response: no responses
[8]; Cohort 2, 0.10 mg/kg, day 14 follow up visit
  subjects with decrease in viral load and increase in neopterin: 2 subjects
[8]; Cohort 3, 1.0 mg/kg (interim), 7 daily injections, single responding subject, 30-day visit
  HCV viral load (log10 decrease) Day 30: 1.2 log10
[8]; Cohort 3, one of 4 subjects at the 30-day visit
  drop in HCV: 1.2 log
neopterin
  Neopterin (nmol/L) Day 30: 33 nmol/L
[9]; all 3 dose groups
  SAEs reported: No SAEs were reported
  discontinuation of treatment due to AEs: no subject had to discontinue treatment due to AEs
  tolerability: well tolerated
[9]; any of the subjects
  changes in ALT from baseline: No significant changes
HCV [10]
  response against HCV: improved response
Thymocyte and lymphocyte
  Con-A-induced thymocyte and lymphocyte proliferation: increases
Spleen lymphocytes
  Con-A-induced interleukin-2 (IL-2) production and IL-2 receptor expression by spleen lymphocytes: increases
Bone marrow cells
  expression of Thy-1.2 on bone marrow cells: stimulates expression
[11]
  immunostimulatory effect: strong immunostimulatory effect
Sheep red blood cells
  immunostimulatory effect: strong immunostimulatory effect
STAT-3
  STAT-3 dependent signaling / STAT3 activity: inhibition; also recorded: inhibit
[12]
  Th2 cytokines IL-4 and IL-10: decreasing
  production of the Th1 cytokines IFN-g and IL-2: increases
Pichinde virus
  survival: increased survival
[13]
  survival: increased survival
Herpes virus HSV-2
  recurrence: decreased recurrence
